According to article PMC9090415, “Discovery of small molecule inhibitors of Plasmodium falciparum apicoplast DNA polymerase” (Journal of Enzyme Inhibition and Medicinal Chemistry, 2022):

Molecular target: P. falciparum apicoplast DNA polymerase (Pf-apPOL) (Plasmodium falciparum, UniProt Q8ILY1)
Experiment: Fluorescence-based high-throughput DNA polymerase assay (molecular beacon), primary screen and dose-response;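 on % inhibition ApPOL 90': test concentration in µM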;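 on % inhibition apPOL 180': test concentration in µM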
Type: biochemical
How it was run: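 Single-point screening used 10 µM compound with 20 nM polymerase, 20 nM hairpin substrate and 6 µM dNTPs for 90 min at 25 °C. Confirmatory titrations (2.5–80 µM) followed fluorescence at three times, and IC50 was derived from a fit including a cooperativity term n.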

[1] = supplemental file 2, sheet IC50 nontoxic compounds; Pf-apPOL
[2] = 'DNA Pol'; screening value, unit not given; 90 min, 10 µM
[3] = primary screen hit value, DNA Pol (186 hits); 90 min, 10 µM

Chain of P. falciparum apicoplast DNA polymerase (Pf-apPOL) (Q8ILY1 entry or part of it): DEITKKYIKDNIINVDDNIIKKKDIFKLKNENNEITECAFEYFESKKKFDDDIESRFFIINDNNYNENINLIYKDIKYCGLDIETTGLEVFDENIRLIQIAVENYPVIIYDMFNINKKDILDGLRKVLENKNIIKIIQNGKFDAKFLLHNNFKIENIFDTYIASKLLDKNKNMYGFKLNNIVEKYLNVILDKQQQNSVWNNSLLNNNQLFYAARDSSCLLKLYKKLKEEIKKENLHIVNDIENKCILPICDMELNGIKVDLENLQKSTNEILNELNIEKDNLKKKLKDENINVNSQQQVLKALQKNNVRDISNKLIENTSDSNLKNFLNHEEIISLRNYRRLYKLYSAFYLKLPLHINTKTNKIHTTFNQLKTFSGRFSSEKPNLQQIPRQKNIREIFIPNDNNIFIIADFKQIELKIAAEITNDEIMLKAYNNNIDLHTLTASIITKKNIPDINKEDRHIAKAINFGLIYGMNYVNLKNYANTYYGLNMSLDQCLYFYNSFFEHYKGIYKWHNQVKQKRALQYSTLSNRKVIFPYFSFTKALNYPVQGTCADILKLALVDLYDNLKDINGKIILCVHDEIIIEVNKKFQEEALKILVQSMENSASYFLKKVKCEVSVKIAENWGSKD

SMILES: Cc1ccc(C2=N/C(=C\c3ccc(I)o3)C(=O)O2)cc1[N+](=O)[O-] [KU0073890]
- % inhibition Apo pol 10' (DRC-1; concentration 2.5; 10'): 15.7556%
- % inhibition Apol 90' (DRC-1; concentration 2.5; 90'): 9.731%
- % inhibition apPOL 180' (DRC-1; concentration 2.5; 180'): 6.694%
- % inhibition Apo pol 10' (DRC-1; concentration 5; 10'): 16.0721%
- % inhibition Apol 90' (DRC-1; concentration 5; 90'): 7.063%
- % inhibition apPOL 180' (DRC-1; concentration 5; 180'): 1.084%
- % inhibition Apo pol 10' (DRC-1; concentration 10; 10'): 45.023%
- % inhibition Apol 90' (DRC-1; concentration 10; 90'): 27.25%
- % inhibition apPOL 180' (DRC-1; concentration 10; 180'): 14.7198%
- % inhibition Apo pol 10' (DRC-1; concentration 20; 10'): 76.1272%
- % inhibition Apol 90' (DRC-1; concentration 20; 90'): 60.0756%
- % inhibition apPOL 180' (DRC-1; concentration 20; 180'): 43.2832%
- % inhibition Apo pol 10' (DRC-1; concentration 40; 10'): 86.9883%
- % inhibition Apol 90' (DRC-1; concentration 40; 90'): 86.9491%
- % inhibition apPOL 180' (DRC-1; concentration 40; 180'): 82.7565%
- % inhibition Apo pol 10' (DRC-1; concentration 80 (unit not given); 10'): 80.4424%
- % inhibition Apol 90' (DRC-1; concentration 80; 90'): 89.2693%
- % inhibition apPOL 180' (DRC-1; concentration 80; 180'): 91.2118%
- % inhibition Apo pol 5' (DRC-2; 5'; concentration 2.5): 19%
- % inhibition Apol 40' (DRC-2; 40'; concentration 2.5): 19%
- % inhibition ApPOL 90' (DRC-2; 90'; concentration 2.5): 17%
- % inhibition ApPOL 90' (DRC-2; 90'; concentration 40): 75%
- % inhibition ApPOL 90' (DRC-2; 90'; concentration 80): 75%
- % inhibition apPOL 180' (DRC-2; 180'; concentration 5): 17%
- % inhibition Apo pol 5' (DRC-2; concentration 2.5; 5'): 19%
- % inhibition Apol 40' (DRC-2; concentration 2.5; 40'): 19%
- % inhibition ApPOL 90' (DRC-2; concentration 2.5; 90'): 17%
- % inhibition apPOL 180' (DRC-2; concentration 2.5; 180'): 11%
- % inhibition Apo pol 5' (DRC-2; concentration 5; 5'): 35%
- % inhibition Apol 40' (DRC-2; concentration 5; 40'): 32%
- % inhibition ApPOL 90' (DRC-2; concentration 5; 90'): 29%
- % inhibition apPOL 180' (DRC-2; concentration 5; 180'): 17%
- % inhibition Apo pol 5' (DRC-2; concentration 10; 5'): 44%
- % inhibition Apol 40' (DRC-2; concentration 10; 40'): 42%
- % inhibition ApPOL 90' (DRC-2; concentration 10; 90'): 38%
- % inhibition apPOL 180' (DRC-2; concentration 10; 180'): 25%
- % inhibition Apo pol 5' (DRC-2; concentration 20; 5'): 55%
- % inhibition Apol 40' (DRC-2; concentration 20; 40'): 62%
- % inhibition ApPOL 90' (DRC-2; concentration 20; 90'): 60%
- % inhibition apPOL 180' (DRC-2; concentration 20; 180'): 51%
- % inhibition Apo pol 5' (DRC-2; concentration 40; 5'): 58%
- % inhibition Apol 40' (DRC-2; concentration 40; 40'): 73%
- % inhibition ApPOL 90' (DRC-2; concentration 40; 90'): 75%
- % inhibition apPOL 180' (DRC-2; concentration 40; 180'): 77%
- % inhibition Apo pol 5' (DRC-2; concentration 80; 5'): 49%
- % inhibition Apol 40' (DRC-2; concentration 80; 40'): 70%
- % inhibition ApPOL 90' (DRC-2; concentration 80; 90'): 75%
- % inhibition apPOL 180' (DRC-2; concentration 80; 180'): 80%
- DNA Pol (primary screen value of the 186 hits; unit not given; 90 min, 10 µM): 42
- DNA Pol (primary screen value; head prints only 'DNA Pol'; 90 min, 10 µM): 42

SMILES: CCCCC(=O)N1CCc2c(nc3cc(-c4ccccc4Cl)[nH]n3c2=O)C1 [Molecule 37]
- IC50 [1]: 10.4 µM

SMILES: O=C(Nc1nnc(-c2cccs2)o1)c1ccc([N+](=O)[O-])o1 [Molecule 74, O=C(c1ccc(o1)[N+](=O)[O-])Nc1nnc(o1)c1cccs1]
- DNA Pol [2]: 45
- % inhibition Apo pol 10' (DRC-1; 10'; concentration 2.5): 6.774%
- % inhibition Apo pol 10' (DRC-1; 10'; concentration 5): 8.378%
- % inhibition Apo pol 10' (DRC-1; 10'; concentration 10): 26.6912%
- % inhibition Apo pol 10' (DRC-1; 10'; concentration 20): 31.2083%
- % inhibition Apo pol 10' (DRC-1; 10'; concentration 40): 61.6111%
- % inhibition Apo pol 10' (DRC-1; 10'; concentration 80): 81.7408%
- % inhibition Apol 90' (DRC-1; 90'; concentration 2.5): 1.699%
- % inhibition Apol 90' (DRC-1; 90'; concentration 5): 1.687%
- % inhibition Apol 90' (DRC-1; 90'; concentration 10): 13.6974%
- % inhibition Apol 90' (DRC-1; 90'; concentration 20): 16.6576%
- % inhibition Apol 90' (DRC-1; 90'; concentration 40): 40.7668%
- % inhibition Apol 90' (DRC-1; 90'; concentration 80): 62.2777%
- % inhibition apPOL 180' (DRC-1; 180'; concentration 2.5): -4.1234%
- % inhibition apPOL 180' (DRC-1; 180'; concentration 5): -4.583%
- % inhibition apPOL 180' (DRC-1; 180'; concentration 10): 3.855%
- % inhibition apPOL 180' (DRC-1; 180'; concentration 20): 5.086%
- % inhibition apPOL 180' (DRC-1; 180'; concentration 40): 25.388%
- % inhibition apPOL 180' (DRC-1; 180'; concentration 80): 45.6773%
- % inhibition Apo pol 5' (DRC-2, 5', concentration 2.5): 3%
- % inhibition Apo pol 5' (DRC-2, 5', concentration 5): 14%
- % inhibition Apo pol 5' (DRC-2, 5', concentration 10): 30%
- % inhibition Apo pol 5' (DRC-2, 5', concentration 20): 41%
- % inhibition Apo pol 5' (DRC-2, 5', concentration 40): 61%
- % inhibition Apo pol 5' (DRC-2, 5', concentration 80): 70%
- % inhibition Apol 40' (DRC-2, 40', concentration 2.5): 1.79%
- % inhibition Apol 40' (DRC-2, 40', concentration 5): 13%
- % inhibition Apol 40' (DRC-2, 40', concentration 10): 27%
- % inhibition Apol 40' (DRC-2, 40', concentration 20): 36%
- % inhibition Apol 40' (DRC-2, 40', concentration 40): 61%
- % inhibition Apol 40' (DRC-2, 40', concentration 80): 78%
- % inhibition ApPOL 90' (DRC-2, 90', concentration 2.5): -0.446%
- % inhibition ApPOL 90' (DRC-2, 90', concentration 5): 12%
- % inhibition ApPOL 90' (DRC-2, 90', concentration 10): 24%
- % inhibition ApPOL 90' (DRC-2, 90', concentration 20): 32%
- % inhibition ApPOL 90' (DRC-2, 90', concentration 40): 57%
- % inhibition ApPOL 90' (DRC-2, 90', concentration 80): 79%
- % inhibition apPOL 180' (DRC-2, 180', concentration 2.5): -3.19%
- % inhibition apPOL 180' (DRC-2, 180', concentration 5): 7%
- % inhibition apPOL 180' (DRC-2, 180', concentration 10): 15%
- % inhibition apPOL 180' (DRC-2, 180', concentration 20): 20%
- % inhibition apPOL 180' (DRC-2, 180', concentration 40): 45%
- % inhibition apPOL 180' (DRC-2, 180', concentration 80): 76%
- % inhibition Apo pol 5' (conc 40 (unit not given); 5'; DRC-2): 61%
- % inhibition Apol 40' (conc 40 (unit not given); 40'; DRC-2): 61%
- DNA Pol [3]: 45

SMILES: CSC(C)C(=O)C=CN(C)C (centres unmarked) [Molecule 71, CSC(C(=O)C=CN(C)C)C]
- DNA Pol [2]: 74
- % inhibition Apo pol 10' (DRC-1; 10'; concentration 2.5): 3.1346%
- % inhibition Apo pol 10' (DRC-1; 10'; concentration 5): 9.272%
- % inhibition Apo pol 10' (DRC-1; 10'; concentration 10): 23.0547%
- % inhibition Apo pol 10' (DRC-1; 10'; concentration 20): 40.6618%
- % inhibition Apo pol 10' (DRC-1; 10'; concentration 40): 61.0031%
- % inhibition Apo pol 10' (DRC-1; 10'; concentration 80): 73.8561%
- % inhibition Apol 90' (DRC-1; 90'; concentration 2.5): -5.565%
- % inhibition Apol 90' (DRC-1; 90'; concentration 5): -2.761%
- % inhibition Apol 90' (DRC-1; 90'; concentration 10): 6.496%
- % inhibition Apol 90' (DRC-1; 90'; concentration 20): 18.7859%
- % inhibition Apol 90' (DRC-1; 90'; concentration 40): 40.8686%
- % inhibition Apol 90' (DRC-1; 90'; concentration 80): 61.3008%
- % inhibition apPOL 180' (DRC-1; 180'; concentration 2.5): -9.552%
- % inhibition apPOL 180' (DRC-1; 180'; concentration 5): -9.951%
- % inhibition apPOL 180' (DRC-1; 180'; concentration 10): -3.723%
- % inhibition apPOL 180' (DRC-1; 180'; concentration 20): 5.025%
- % inhibition apPOL 180' (DRC-1; 180'; concentration 40): 23.5627%
- % inhibition apPOL 180' (DRC-1; 180'; concentration 80): 48.8803%
- % inhibition Apo pol 5' (DRC-2, 5', concentration 2.5): 11%
- % inhibition Apo pol 5' (DRC-2, 5', concentration 5): 14%
- % inhibition Apo pol 5' (DRC-2, 5', concentration 10): 26%
- % inhibition Apo pol 5' (DRC-2, 5', concentration 20): 41%
- % inhibition Apo pol 5' (DRC-2, 5', concentration 40): 46%
- % inhibition Apo pol 5' (DRC-2, 5', concentration 80): 48%
- % inhibition Apol 40' (DRC-2, 40', concentration 2.5): 11%
- % inhibition Apol 40' (DRC-2, 40', concentration 5): 11%
- % inhibition Apol 40' (DRC-2, 40', concentration 10): 21%
- % inhibition Apol 40' (DRC-2, 40', concentration 20): 42%
- % inhibition Apol 40' (DRC-2, 40', concentration 40): 50%
- % inhibition Apol 40' (DRC-2, 40', concentration 80): 62%
- % inhibition ApPOL 90' (DRC-2, 90', concentration 2.5): 9%
- % inhibition ApPOL 90' (DRC-2, 90', concentration 5): 6%
- % inhibition ApPOL 90' (DRC-2, 90', concentration 10): 15%
- % inhibition ApPOL 90' (DRC-2, 90', concentration 20): 39%
- % inhibition ApPOL 90' (DRC-2, 90', concentration 40): 47%
- % inhibition ApPOL 90' (DRC-2, 90', concentration 80): 64%
- % inhibition apPOL 180' (DRC-2, 180', concentration 2.5): 4%
- % inhibition apPOL 180' (DRC-2, 180', concentration 5): 0.715%
- % inhibition apPOL 180' (DRC-2, 180', concentration 10): 5.41%
- % inhibition apPOL 180' (DRC-2, 180', concentration 20): 31%
- % inhibition apPOL 180' (DRC-2, 180', concentration 40): 37%
- % inhibition apPOL 180' (DRC-2, 180', concentration 80): 65%
- % inhibition Apo pol 5' (conc 2.5 (unit not given); 5'; DRC-2): 11%
- % inhibition Apol 40' (conc 2.5 (unit not given); 40'; DRC-2): 11%
- % inhibition Apol 40' (conc 5 (unit not given); 40'; DRC-2): 11%
- DNA Pol [3]: 74

SMILES: COc1ccc(NC(=O)Cn2ccc3c(=O)[nH]ccc32)cc1 [Molecule 13]
- IC50 [1]: 7.09 µM

SMILES: CN(C)C=C1SCc2ccccc2C1=O [Molecule 77]
- IC50 [1]: 23.7 µM

SMILES: O=C(O)CCS(=O)(=O)c1ccc(-c2ccc(S(=O)(=O)CCC(=O)O)cc2)cc1 [Molecule 32]
- IC50 [1]: 5.7 µM

SMILES: O=C(c1ccccc1)N1CCc2c(nc3cc(-c4ccccc4)[nH]n3c2=O)C1 [Molecule 30]
- IC50 [1]: 9.54 µM

SMILES: O=C(Cn1ccc2c(=O)[nH]ccc21)Nc1ccccc1Cl [Molecule 19]
- IC50 [1]: 6.87 µM
